We go through one molecule from patent publication US20020161194A1, “Cannine androgen receptor” (priority 2000, published 2002).

This experiment concerns canine androgen receptor. Conditions: DHT 10^−7 M, 24 hr, control A293S cells lacking the canine AR.

From the text: Control plates were transfected with all plasmids except canine AR. […] Luciferase activity was normalized for transfection efficiency using β-galactosidase activity.
Control plates were transfected with all the same plasmids except canine AR. […] Cells were harvested 24 hr after compound addition and analyzed for luciferase activity (Luciferase Assay System, Promega, Madison, Wis.) and β-galactosidase activity (Galacto-Star, Tropix, Inc., Bedford, Mass.). Data is expressed as fold induction of luciferase activity as compared to vehicle, following normalization for transfection efficiency using β-galactosidase activity.

On to `C[C@]12CCC(=O)C[C@@H]1CC[C@@H]1[C@@H]2CC[C@]2(C)[C@@H](O)CC[C@@H]12` [DHT, 5α-androstan-17β-ol-3-one], for which the “induction of luciferase activity compared to vehicle” value was “no induction”.
